One compound from PMC8375385, “In vitro Effect of Harmine Alkaloid and Its N-Methyl Derivatives Against Toxoplasma gondii” (Frontiers in Microbiology, 2021) can be followed below.

Series [1] can be described thus: MTT cytotoxicity on Vero host cells, 2 days. Particulars: African green monkey (Cercopithecus aethiops), Vero cells (monolayers), CC50, Vero cells, 2 days of treatment (Table 1 footnote a).
Series [2] deals with T. gondii RH Δhxgprt tachyzoites. Briefly: Invasion assay, pretreated extracellular tachyzoites. Particulars: extracellular tachyzoites preincubated 1 h, 0 up to ∼50 μM, Vero cells. It is filed as cell-based, Toxoplasma gondii. The procedure: Extracellular tachyzoites of RH Δhxgprt strain (2 × 10^6) were preincubated for 1 h (at 37°C and 5% CO2) with different doses of the assayed compounds (up to 40–50 μM) or the vehicle (DMSO) diluted in supplemented DMEM. Parasites were, then, centrifuged, resuspended in supplemented DMEM, and were allowed to invade Vero cell monolayers grown on coverslips in 24-well plates by incubation for 10 min on ice followed by 1 h at 37°C. Invasion assay was performed as described elsewhere ([Yañuk et al., 2017]). To facilitate counting, cells were analyzed by indirect immunofluorescence assay (IFA). Immunostaining was performed using anti-SAG1 mouse monoclonal (Novus Biologicals, 1:50)/goat anti-mouse Alexa Fluor 488 (Invitrogen, 1:4,000) antibodies. Fifty random fields per sample, with a similar number of host cells, were analyzed under microscope (Zeiss Axio Observer Colibri 7, magnification × 63). The number of parasitophorous vacuoles per field (PV/field) was counted. Data are presented as means of PV/field ± SEM. Two independent experiments were performed in duplicates.

In the case of `COc1ccc2c3ccnc(C)c3n(C)c2c1` [Compound 3, 9-methyl-harmine], the CC50 (in general, the concentration that lowers cell viability or growth by half) at 2 days in series [1] is about 60 µM. Besides, the “effect on invasion process (PV/field)” value in series [2] is “negligible or rather low effect”.
